Test results as given in patent US6524630B2, “Use of cocoa procyanidins combined with acelylsalicyclic acid as an anti-platelet therapy” (Mars, Incorporated, priority 2000, dated 2003).
Marks after values point to notes of the source that are not given here.

Legend:
Format in all cases: in vivo, human
[1] = system: P-selectin (CD62P); assay: Ex vivo flow cytometry of platelet surface expression of P-selectin after treatment
Description: The subjects used in the previous study also participated in the surface protein expression study. The methodology with respect to treatment regimes and collection of blood was identical to that which was outlined in the previous example. Within 10 minutes of draw, whole blood was incubated in polystyrene tubes for 5 minutes at room temperature with 10 μm HEPES buffer (pH 7.4, unstimulated control), 20 or 100 μm ADP or 20 μtm epinephrine (BioData, Horsham, Pa.) in the presence or absence of the peptide […] (Sigma, St. Louis, Mo.). After 5 minutes, samples were suspended in 1 ml HEPES buffer and 100 μm of sample were transferred to tubes containing saturating concentrations (20 μm ) each of the following fluorescent-labeled monoclonal antibodies: PAC1-fluorescein isothiocyanate (FITC), anti-CD62P-phycoerythrin (PE) and anti-CD42a-PerCP. PAC1 recognizes the activated conformation of the fibrinogen-binding receptor GPIIb-IIIa and anti-CD62P recognizes P-selectin, present on the surface of activated platelets. Anti-CD42a recognizes GP1b-1X, which is on the surface of both activated and resting platelets. Mouse IgG, FITC and mouse IgG, PE were used as isotype controls. The […]-peptide was used to block binding of the PAC1 antibody to platelets and thus set the negative control marker on the flow cytometer. Antibodies and isotype controls were purchased from Becton Dickinson Immunocytometry Systems, Inc., San Jose, Calif. Whole blood samples in the presence and absence of the agonists ADP and epinephrine were incubated with monoclonal antibodies or isotype control for 20 minutes in the dark at room temperature. Samples were then fixed in filtered 1% paraformaldehyde (pH 7.2) and stored in the dark at 2-8° C. All samples were analyzed within 48 hours on a FACScan flow cytometer using […] software. The flow cytometer performance was verified using 1, 2 and 10 μm calibration beads (Becton Dickinson Immunocytometry Systems, Inc., San Jose, Calif. and Flow Cytometry Systems, Research Triangle Park, N.C.). Twenty thousand events were collected in list mode with all light-scatter and fluorescence parameters in logarithmic code. Platelets were gated on the basis of […] CD42a expression. Activated platelets were defined as the percentage of CD42a positive events coexpressing the activated conformation of GPIIb-IIa or P-selectin. Platelet microparticles were defined as the percentage of CD42a positive events less than 2 μm in size. To perform the statistical analysis of the results, Friedman's repeated measures ANOVA on ranks (RM ANOVA on ranks) was used to compare the baseline, 2 and 6 hour results in each treatment group. Tukey's all pairwise comparison was used for post hoc multiple comparisons. […] The platelet-dependent hemostasis data were also analyzed for statistical differences among treatment groups for each time point, baseline, 2 and 6 hour.

[2] = system: thromboxane (TXA2) metabolite TXB2; assay: Enzyme immunoassay of thromboxane metabolite in blood after treatment
Description: Blood was drawn from the subjects prior to consumption of any food. After the initial blood was drawn, the subjects were divided into four groups. One group consumed 81 mg of aspirin (acetylsalicylic acid) (Bayer pediatric aspirin). A second group consumed a high cocoa polyphenol beverage consisting of 18.75 g of procyanidin enriched cocoa powder derived from Sulawesi beans (containing 51.1 mg/g of total procyanidins, 11.2% fat, 0.092% caffeine, 1.618% theobromine) and 12.5 g of sucrose mixed with 300 ml of distilled water. A third group consumed the high cocoa procyanidin beverage and 81 mg of baby aspirin. The final group consumed 81 mg of baby aspirin and a procyanidin deficient cocoa beverage consisting of 18.75 g of cocoa powder (containing 0.45 mg/g total procyanidins, 9.87% fat, 2.063% theobromine, 0.234% caffeine) and 12.5 g of sucrose mixed with 300 ml of distilled water. During the test period the subjects were permitted to consume water, caffeine-free diet soda, bagels, low fat cream cheese, and bananas. Blood was drawn from each of the subjects two hours and six hours post consumption of the treatment. Venous blood was aspirated into evacuated tubes containing 0.5 ml of 3.2% buffered sodium citrate solution.
The blood samples were also analyzed for changes in leukotriene, prostacyclin and thromboxane levels resulting from the four treatment regimes. Immunoassay procedures were conducted as described by Westcott et al, “Analysis Of 6-Keto PGF1 Alpha, 5-HETE, And LTC4 In Rat Lung: Comparison Of GM/MS, RIA and EIA”, Prostaglandins 32:857-873, 1986; Yakota et al, “Enzyme Immunoassay Of Prostanoids In Blood And Urine”, Adv. Prostgl.Thrombox. Leukot. Res. 15:33-34, 1985; and Schramm et al, “Differential Effects of Small and Large Molecular Weight Phytochemicals on Endothelial Cell Eicosanoid Secretion” J Agric Food Chem 46:1900-1905, 1998. The prostacyclin (PGI2) metabolite 6-keto prostaglandin F1-alpha was measured with Cayman enzyme immunoassay #515211, the thromboxane (TXA2) metabolite TXB2 was measured with Cayman enzyme immunoassay 519031, and leukotrienes C4, D4 and E4 were quantified using the immunoassay EA-39 from Oxford Biomedical Research. P values were calculated using the paired sample T-test. Values of p<0.05 were considered to be statistically significant.

[3] = system: prostacyclin (PGI2) metabolite 6-keto prostaglandin F1-alpha; assay: Enzyme immunoassay of prostacyclin metabolite in blood after treatment
Description: Blood was drawn from the subjects prior to consumption of any food. After the initial blood was drawn, the subjects were divided into four groups. One group consumed 81 mg of aspirin (acetylsalicylic acid) (Bayer pediatric aspirin). A second group consumed a high cocoa polyphenol beverage consisting of 18.75 g of procyanidin enriched cocoa powder derived from Sulawesi beans (containing 51.1 mg/g of total procyanidins, 11.2% fat, 0.092% caffeine, 1.618% theobromine) and 12.5 g of sucrose mixed with 300 ml of distilled water. A third group consumed the high cocoa procyanidin beverage and 81 mg of baby aspirin. […] The blood samples were also analyzed for changes in leukotriene, prostacyclin and thromboxane levels resulting from the four treatment regimes. […] The prostacyclin (PGI2) metabolite 6-keto prostaglandin F1-alpha was measured with Cayman enzyme immunoassay #515211, the thromboxane (TXA2) metabolite TXB2 was measured with Cayman enzyme immunoassay 519031, and leukotrienes C4, D4 and E4 were quantified using the immunoassay EA-39 from Oxford Biomedical Research. P values were calculated using the paired sample T-test. […]

[4] = system: leukotrienes C4, D4 and E4; assay: Immunoassay of leukotrienes in blood after treatment
Description: Blood was drawn from the subjects prior to consumption of any food. After the initial blood was drawn, the subjects were divided into four groups. One group consumed 81 mg of aspirin (acetylsalicylic acid) (Bayer pediatric aspirin). A second group consumed a high cocoa polyphenol beverage consisting of 18.75 g of procyanidin enriched cocoa powder derived from Sulawesi beans (containing 51.1 mg/g of total procyanidins, 11.2% fat, 0.092% caffeine, 1.618% theobromine) and 12.5 g of sucrose mixed with 300 ml of distilled water. A third group consumed the high cocoa procyanidin beverage and 81 mg of baby aspirin. The final group consumed 81 mg of baby aspirin and a procyanidin deficient cocoa beverage consisting of 18.75 g of cocoa powder (containing 0.45 mg/g total procyanidins, 9.87% fat, 2.063% theobromine, 0.234% caffeine) and 12.5 g of sucrose mixed with 300 ml of distilled water. During the test period the subjects were permitted to consume water, caffeine-free diet soda, bagels, low fat cream cheese, and bananas. Blood was drawn from each of the subjects two hours and six hours post consumption of the treatment. Venous blood was aspirated into evacuated tubes containing 0.5 ml of 3.2% buffered sodium citrate solution. The blood samples were also analyzed for changes in leukotriene, prostacyclin and thromboxane levels resulting from the four treatment regimes. Immunoassay procedures were conducted as described by Westcott et al, “Analysis Of 6-Keto PGF1 Alpha, 5-HETE, And LTC4 In Rat Lung: Comparison Of GM/MS, RIA and EIA”, Prostaglandins 32:857-873, 1986; Yakota et al, “Enzyme Immunoassay Of Prostanoids In Blood And Urine”, Adv. Prostgl.Thrombox. Leukot. Res. 15:33-34, 1985; and Schramm et al, “Differential Effects of Small and Large Molecular Weight Phytochemicals on Endothelial Cell Eicosanoid Secretion” J Agric Food Chem 46:1900-1905, 1998. The prostacyclin (PGI2) metabolite 6-keto prostaglandin F1-alpha was measured with Cayman enzyme immunoassay #515211, the thromboxane (TXA2) metabolite TXB2 was measured with Cayman enzyme immunoassay 519031, and leukotrienes C4, D4 and E4 were quantified using the immunoassay EA-39 from Oxford Biomedical Research. P values were calculated using the paired sample T-test. Values of p<0.05 were considered to be statistically significant.

[5] = system: activated conformation of the GPIIb/IIIa platelet receptor; assay: Ex vivo flow cytometry (PAC1) of activated GPIIb/IIIa on platelets after treatment; settings: at 6 hours compared to baseline
Description: The subjects used in the previous study also participated in the surface protein expression study. The methodology with respect to treatment regimes and collection of blood was identical to that which was outlined in the previous example. Within 10 minutes of draw, whole blood was incubated in polystyrene tubes for 5 minutes at room temperature with 10 μm HEPES buffer (pH 7.4, unstimulated control), 20 or 100 μm ADP or 20 μtm epinephrine (BioData, Horsham, Pa.) in the presence or absence of the peptide […] (Sigma, St. Louis, Mo.). After 5 minutes, samples were suspended in 1 ml HEPES buffer and 100 μm of sample were transferred to tubes containing saturating concentrations (20 μm ) each of the following fluorescent-labeled monoclonal antibodies: PAC1-fluorescein isothiocyanate (FITC), anti-CD62P-phycoerythrin (PE) and anti-CD42a-PerCP. PAC1 recognizes the activated conformation of the fibrinogen-binding receptor GPIIb-IIIa and anti-CD62P recognizes P-selectin, present on the surface of activated platelets. […] All samples were analyzed within 48 hours on a FACScan flow cytometer using […] software. […] Twenty thousand events were collected in list mode with all light-scatter and fluorescence parameters in logarithmic code. […] The platelet-dependent hemostasis data were also analyzed for statistical differences among treatment groups for each time point, baseline, 2 and 6 hour.

Compound: CC(=O)Oc1ccccc1C(=O)O [Aspirin, acetylsalicylic acid]
- % CD62 + Platelets, Median ([1]; 20 μM ADP, 0 Hour (before consumption)): 64.5%
- % CD62 + Platelets, Median ([1]; 20 μM ADP, 2 Hour): 60.3%
- % CD62 + Platelets, Median ([1]; 20 μM ADP, 6 Hour): 60.8%
- % CD62 + Platelets, Median ([1]; 20 μM Epinephrine, 0 Hour (before consumption)): 7.9%
- % CD62 + Platelets, Median ([1]; 20 μM Epinephrine, 2 Hour): 6.2%
- % CD62 + Platelets, Median ([1]; 20 μM Epinephrine, 6 Hour): 4.7* %
- % CD62 + Platelets, Median ([1]; Unstimulated, 0 Hour (before consumption)): 1.4%
- % CD62 + Platelets, Median ([1]; Unstimulated, 2 Hour): 1.5%
- % CD62 + Platelets, Median ([1]; Unstimulated, 6 Hour): 1.3%
- epinephrine-induced P-selectin expression ([1]; at 6 hours compared to baseline, in words): suppressed
- TXB2/PG12 ratio ([2]; 2 hrs post consumption): 89
- Thromboxane ([2]; 2 hrs post consumption): 91
- TXB2/PG12 ratio ([2]; 6 hrs post consumption): 86
- Thromboxane ([2]; 6 hrs post consumption): 89
- Prostacyclin ([3]; 2 hrs post consumption): 103
- Prostacyclin ([3]; 6 hrs post consumption): 104
- LT/PG12 ratio ([4]; 2 hrs post consumption): 99
- Leukotrienes ([4]; 2 hrs post consumption): 101
- LT/PG12 ratio ([4]; 6 hrs post consumption): 100
- Leukotrienes ([4]; 6 hrs post consumption): 100
- epinephrine-induced GPIIb/IIIa expression [5]: suppressed
